# Test results published in US10695330B2, “Methods of treatment” (Global Blood Therapeutics, Inc., priority 2015, dated 2020).
# Assays:
# [1] = system: mice with LPS-induced ALI; experiment: LPS-induced acute lung injury mouse model with hypoxic challenge: inflammation, SpO2, survival; assay type: in vivo; details: for survival: after 4 hours of exposure to 5% O2 hypoxia; for increase of SpO2, of control value: 5% O2 hypoxia
# Description: Adult, 8-10-week-old male C57BL/6J mice (Jackson Laboratory, Bar Harbor, Me.), were anesthetized with isoflurane, injected with 100 μg LPS (Sigma, St. Louis, Mo.) in 100 μL PBS by direct intratracheal injection. After 24 hours, mice were given Compound 1 (70 or 140 mg/kg formulated in dimethylacetamide, polyethylene glycol 400 (PEG400) and 40% cavitron in a ratio of 1:5:4, respectively) or vehicle only (5 μL/g) by oral gavage 2 hours prior to placement in a hypoxia chamber. Mice were exposed to either 10 or 5% O2 for 4 hours. Oxygen saturation (SaO2) was measured with a pulse oximeter (STARR Life Sciences, Oakmont, Pa.) at baseline and hourly during hypoxic exposure. During hypoxic exposure, mice were monitored continuously and a moribund check was done every 15 minutes. Time to death was assessed by time to moribund status. Mice were determined to be moribund if they could not right themselves when placed in a supine position.
# Blood was collected by cardiac puncture in the hypoxic chamber. Blood gases were measured using the i-STAT portable analyzer within the hypoxic environment (Abaxis, Union City, Calif.). Remaining blood samples were used for hemoximetry and pharmacokinetic analysis. For sample collection, mice were euthanized with pentobarbital overdose. A bronchoaleveolar lavage (BAL) was performed with 900 uL Saline. Blood was collected by retro orbital puncture, and then spun to collect plasma. Lungs were removed and flash frozen. All samples were stored at −80° C. until further study. BAL inflammatory cell counts and differentials were determined manually after staining cytospins with DiffQuik. BAL protein was measured using a Pierce BCA Protein Assay Kit (Thermo Scientific, Waltham, Mass.).
# Using a MouseOx, peripheral arterial O2 saturation (SpO2) was measured during hypoxia. SpO2 was measured for each group every hour during hypoxia. In general, SpO2 decreased during hypoxia for all groups. […] For example, during 5% O2 hypoxia, Compound 1 at 70 mg/kg or 140 mg/kg increased SpO2 by 22% or 31% of control value, respectively.
# During exposure hypoxia, mice were monitored continuously and a moribund check was done every 15 minutes. Time to death was assessed by time to moribund status. Mice were determined to be moribund if they could not right themselves when placed in a supine position.
# macrophages = experiment: Production of TNF-α and IL-6 by macrophages; assay type: cell-based; details: in vitro
# Text: Reactive oxygen species (ROS) released from activated white blood cells cause lung injury as well as fibrotic changes in patients with IPF. […] Thus, the compounds described herein could also provide a method to inhibit the adverse effects of inflammation in a patient. Reduction in systemic pro-inflammatory cytokines (tumor necrosis alpha and interleukin-6) also has the potential to exert a broad anti-inflammatory effect which would supplement the beneficial effect of alleviation of hypoxemia via increased hemoglobin-O2 affinity.
# [2] = system: healthy mice subjected to extreme hypoxia; experiment: Tolerance to hypoxia mouse model: systemic parameters, tissue hypoxia, survival; assay type: in vivo; details: for survival: after 1.5 hours of exposure to 5% O2 hypoxia
# Description: Male, C57BL mice were fitted with a dorsal skinfold window chamber for direct visualization of an intact microvascular bed (Yalcin & Cabrales 2012). After the window chamber was implanted, the animals were left to recover for at least 2 days, before undergoing surgery a second time for arterial (carotid) catheter implantation (PESO tubing). After two day of recovery, mice were dosed orally with Compound 1 (70 or 140 mg/kg) or vehicle only and Hb O2 affinity was determined by hemoximetry. Two hours post dose, conscious mice were placed in a restraining tube with a longitudinal slit from which the protruding window chamber provided a microscopic stage for observation. In this setup, gas flow rate (0.2 L/min) into the tube is diffused by a cotton filter barrier. Baseline measurements for normoxia (21% O2) were completed within an hour of restraining mice. The animals were then exposed to stepwise hypoxia by decreasing the O2 concentration to 15, 10 and 5%. Animals were kept at each hypoxic level for 30 min. Mice were allowed 15 min of acclimatization at each new hypoxic level before measurements were taken. During hypoxia, changes in systemic and microvascular hemodynamics, blood gases, blood lactate, tissue partial pressure of O2 (PO2), tissue hypoxia and tolerance to hypoxia were evaluated. At each time point, mice with adequate systolic blood pressure (BP) were counted as survived and mice with severe hypotension (BP≤60 mmHg) were counted as non-survived and were euthanized.
# MAP (mean arterial pressure) and heart rate (HR) were recorded continuously from Carotid catheter. Hct was measured from centrifuged arterial blood samples taken in heparinized capillary tubes. Arterial blood was collected in heparinized glass capillaries (50 μL) and immediately analyzed for PO2, PCO2, base excess, and pH. Arterial Hb saturations were measured using a CO-Oximeter.
# High resolution non-invasive microvascular PO2 measurements were made using phosphorescence quenching microscopy (PQM). Tissue PO2 was measured in regions in between functional capillaries (Yalcin & Cabrales 2012). Hb O2 saturations in the microcirculation are calculated using the O2 equilibrium curves measured.
# Tissue hypoxia was studied via immunohistochemistry staining for pimonidazole bound to hypoxic zones in vital tissues. Mice received a bolus intraperitoneal injection (IP) injection of the hypoxic marker Hypoxyprobe-1 (pimonidazole 40 mg/kg) and 5 mg/kg Hoechst 33342 diluted in PBS (total volume, 100 μL). At the end of the study, mice were euthanized and tissues extracted for histology. Sections are stained with monoclonal antibody against pimonidazole. Images for pimonidazole antibody-stained areas and Hoechst were recorded. Results are reported as the ratio of pimonidazole stained area to the total cellular area by co-localization of pimonidazole and Hoechst.
structure (smiles),measurement,setting,value
"O=Cc1c(O)cccc1OC[C@@H]1CCCCN1C(=O)c1cccnc1 [Compound 1, (S)-2-hydroxy-6-((1-nicotinoylpiperidin-2-yl)methoxy)benzaldehyde]","inflammation or lung injury (BALF total cells, neutrophils, macrophages, total protein)",[1]; 100 μg LPS intratracheal,no significant effect on inflammation or lung injury
same,survival,[1]; 70 mg/kg,60%
same,survival,[1]; 140 mg/kg,86%
same,"increase of SpO2, of control value",[1]; 70 mg/kg,22%
same,"increase of SpO2, of control value",[1]; 140 mg/kg,31%
same,SpO2 compared to control,"[1]; during 10% and 5% O2 hypoxia, average over 4 hours",higher in Compound 1 dosed mice compared to control
same,anti-inflammatory activity (TNF-α and IL-6 production),macrophages,anti-inflammatory activity
same,survival,[2]; 70 mg/kg,16%
same,survival,[2]; 140 mg/kg,83%
same,arterial blood pH,[2]; during 10% and 5% O2 hypoxia,normal during hypoxia
same,arterial blood oxygen saturation (SaO2),"[2]; during hypoxia, 70 or 140 mg/kg oral, vs control",dose-dependently increased SaO2 relative to control
same,heart rate (HR),"[2]; during hypoxia, vs control",sustained higher
same,mean arterial pressure (MAP),"[2]; during hypoxia, vs control",sustained higher mean BP
same,blood lactate levels,"[2]; extreme hypoxia (5% O2), vs control",reduced lactate levels relative to control
same,hypoxic tissues positively stained by pimonidazole,"[2]; extreme hypoxia, vs control",reduced hypoxic tissues positively stained by pimonidazole relative to control
same,arterial blood partial pressure of O2 (PaO2),"[2]; stepwise hypoxia, 70 or 140 mg/kg oral",the PaO2 was the same in Compound 1-treated and control mice
